According to US7745646B2, “Bicyclic heteroaryl inhibitors of PDE4” (Kalypsys, Inc., priority 2006, dated 2010):

Molecular target: T1, PDE4B (Homo sapiens, UniProt Q07343)
T1 construct: hex-histidine (His6) (N); made in house
Test: Novel coupled PDE/AK bioluminescent assay, PDE4B inhibition
Format: biochemical
Details: PDE4B catalytic domain
From the text: We developed a novel coupled PDE/AK bioluminescent high-throughput assay to measure the activity of phosphodiesterases. In the PDE/AK assay, the AMP produced from the hydrolysis of cAMP by phosphodiesterase is converted to adenosine diphosphate (ADP) by the phosphotransferase activity of adenylate kinase (also known as ADK or myokinase). Adenylate kinase will catalyze the conversion of 1 mole of AMP and 1 mole of ATP into 2 moles of ADP. Thus the conversion of AMP to ADP will result in the subsequent loss of ATP. The decrease in ATP concentration can be monitored as light output using luciferase in a reaction that requires ATP to produce light. The PDE/AK assay uses luciferase, which catalyzes the production of light from ATP present in the reaction mix. The amount of emitted light is inversely proportional to the level of AMP present in the reaction. Test compounds are incubated with the phosphodiesterases and phosphodiesterase inhibitors will decrease the rate of cAMP hydrolysis and decrease the subsequent production of AMP.
A novel coupled PDE/AK assay was utilized to measure the inhibitory activity of compounds on PDE isoforms. The catalytic domain of PDE4B was fused to an amino-terminus hex-histidine affinity tag and purified. PDE4B enzyme was incubated with compounds for 10 minutes. Cyclic AMP substrate, ATP and adenylate kinase were then added to the PDE enzyme mix and incubated for 45 minutes at room temperature. A commercial ATP detection assay, Perkin Elmer's easyLite ATP detection reagent, was then added to measure the relative amount of ATP present in the reaction. After 10 minute incubation, the luminescent signal was quantitated with either the Perkin Elmer Viewlux or Molecular Devices Acquest or Analyst.

T1 sequence (Q07343 330-659 limits assumed, species assumed): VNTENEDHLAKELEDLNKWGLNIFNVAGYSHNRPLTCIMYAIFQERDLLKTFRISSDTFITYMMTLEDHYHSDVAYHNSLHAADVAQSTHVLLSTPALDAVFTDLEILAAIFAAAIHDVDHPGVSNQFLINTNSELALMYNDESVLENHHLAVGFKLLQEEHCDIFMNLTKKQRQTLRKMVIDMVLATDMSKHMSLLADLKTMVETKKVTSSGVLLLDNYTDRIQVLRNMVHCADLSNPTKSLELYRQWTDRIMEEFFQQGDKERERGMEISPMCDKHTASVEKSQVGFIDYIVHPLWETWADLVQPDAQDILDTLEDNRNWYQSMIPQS

IC50 | SMILES
< 1000 nM | COc1ccc2c(Nc3c(Cl)cccc3Cl)cc(=O)oc2c1OC1CCCC1 [Example 1, 8-(Cyclopentyloxy)-4-(2,6-dichlorophenylamino)-7-methoxy-2H-chromen-2-one]
< 1000 nM | COc1ccc2c(Cc3c(Cl)cncc3Cl)cc(=O)oc2c1OC1CCCC1 [Example 2, 8-(Cyclopentyloxy)-4-[(3,5-dichloropyridin-4-yl)methyl]-7-methoxy-2H-chromen-2-one]
> 1000 nM | COc1ccc2c(Nc3c(Cl)cncc3Cl)c(O)c(=O)oc2c1OC1CCCC1 [Example 4, 8-(Cyclopentyloxy)-4-(3,5-dichloropyridin-4-ylamino)-3-hydroxy-7-methoxy-2H-chromen-2-one]
< 1000 nM | CCc1c(Nc2c(Cl)cncc2Cl)c2ccc(OC)c(OCC3CC3)c2oc1=O [Example 6, 8-(Cyclopropylmethoxy)-4-(3,5-dichloropyridin-4-ylamino)-3-ethyl-7-methoxy-2H-chromen-2-one]
> 1000 nM | COc1ccc2c(NCC(=O)O)cc(=O)oc2c1OC1CCCC1 [Example 7, 2-(8-(Cyclopentyloxy)-7-methoxy-2-oxo-2H-chromen-4-ylamino)acetic acid]
> 1000 nM | CCOC(=O)CNc1cc(=O)oc2c(OC3CCCC3)c(OC)ccc12 [Example 8, Ethyl 2-(8-(cyclopentyloxy)-7-methoxy-2-oxo-2H-chromen-4-ylamino)acetate]
> 1000 nM | COc1ccc2c(NCC(N)=O)cc(=O)oc2c1OC1CCCC1 [Example 9, 2-(8-(Cyclopentyloxy)-7-methoxy-2-oxo-2H-chromen-4-ylamino)acetamide]
< 1000 nM | COc1ccc2c(NCC(=O)NO)cc(=O)oc2c1OC1CCCC1 [Example 10, 2-(8-(Cyclopentyloxy)-7-methoxy-2-oxo-2H-chromen-4-ylamino)-N-hydroxyacetamide]
< 1000 nM | COc1ccc2c(Nc3c(Cl)cncc3Br)cc(=O)oc2c1OC1CCCC1 [Example 11, 4-(3-Bromo-5-chloropyridin-4-ylamino)-8-(cyclopentyloxy)-7-methoxy-2H-chromen-2-one]
< 1000 nM | COc1ccc2c(Nc3c(C)cncc3C)cc(=O)oc2c1OC1CCCC1 [Example 12, 8-(Cyclopentyloxy)-4-(3,5-dimethylpyridin-4-ylamino)-7-methoxy-2H-chromen-2-one]
< 1000 nM | COc1ccc2c(Nc3c(Cl)cncc3Cl)c(C)c(=O)oc2c1OC1CCCC1 [Example 13, 8-(Cyclopentyloxy)-4-(3,5-dichloropyridin-4-ylamino)-7-methoxy-3-methyl-2H-chromen-2-one]
< 1000 nM | COc1ccc2c(Nc3c(Cl)cncc3Cl)c(F)c(=O)oc2c1OC1CCCC1 [Example 14, 8-(Cyclopentyloxy)-4-(3,5-dichloropyridin-4-ylamino)-3-fluoro-7-methoxy-2H-chromen-2-one]
< 1000 nM | C=C(OCC)c1cncc(Cl)c1Nc1cc(=O)oc2c(OC3CCCC3)c(OC)ccc12 [Example 15, 4-(3-Chloro-5-(1-ethoxyvinyl)pyridin-4-ylamino)-8-(cyclopentyloxy)-7-methoxy-2H-chromen-2-one]
> 1000 nM | COc1ccc2c(Nc3c(Cl)ccc(C)c3Cl)cc(=O)oc2c1OC1CCCC1 [Example 16, 8-(Cyclopentyloxy)-4-(2,6-dichloro-3-methylphenylamino)-7-methoxy-2H-chromen-2-one]
< 1000 nM | COc1ccc2c(Nc3c(Cl)cccc3C(F)(F)F)cc(=O)oc2c1OC1CCCC1 [Example 17, 4-(2-Chloro-6-(trifluoromethyl)phenylamino)-8-(cyclopentyloxy)-7-methoxy-2H-chromen-2-one]
< 1000 nM | COc1ccc2c(Nc3c(C)cccc3Cl)cc(=O)oc2c1OC1CCCC1 [Example 18, 4-(2-Chloro-6-methylphenylamino)-8-(cyclopentyloxy)-7-methoxy-2H-chromen-2-one]
< 1000 nM | COc1ccc2c(Nc3ccccc3Cl)cc(=O)oc2c1OC1CCCC1 [Example 19, 4-(2-Chlorophenylamino)-8-(cyclopentyloxy)-7-methoxy-2H-chromen-2-one]
> 1000 nM | COC(=O)c1cccc(Cl)c1Nc1cc(=O)oc2c(OC3CCCC3)c(OC)ccc12 [Example 20, Methyl 3-chloro-2-(8-(cyclopentyloxy)-7-methoxy-2-oxo-2H-chromen-4-ylamino)benzoate]
< 1000 nM | COc1ccc2c(Nc3c(Cl)cncc3Cl)cc(=O)oc2c1OC(C)C [Example 21, 4-(3,5-Dichloropyridin-4-ylamino)-8-isopropoxy-7-methoxy-2H-chromen-2-one]
> 1000 nM | COc1ccc2c(Nc3c(Cl)cncc3C(=O)O)cc(=O)oc2c1OC1CCCC1 [Example 22, 5-Chloro-4-(8-(cyclopentyloxy)-7-methoxy-2-oxo-2H-chromen-4-ylamino)nicotinic acid]

IC50 | SMILES
< 1000 nM | COc1ccc2c(Nc3ccccc3Cl)cc(=O)oc2c1OCC1CC1 [Example 24, 4-(2-Chlorophenylamino)-8-(cyclopropylmethoxy)-7-methoxy-2H-chromen-2-one]
< 1000 nM | COc1ccc2c(Nc3c(Cl)cncc3Cl)cc(=O)oc2c1OCc1ccccc1 [Example 26, 8-(Benzyloxy)-4-(3,5-dichloropyridin-4-ylamino)-7-methoxy-2H-chromen-2-one]
< 1000 nM | COc1ccc2c(Nc3c(Cl)cncc3Cl)cc(=O)oc2c1OCCCCCBr [Example 28, 8-(5-Bromopentyloxy)-4-(3,5-dichloropyridin-4-ylamino)-7-methoxy-2H-chromen-2-one]
< 1000 nM | COc1ccc2c(Nc3c(Cl)cncc3Cl)cc(=O)oc2c1O [Example 29, 4-(3,5-Dichloropyridin-4-ylamino)-8-hydroxy-7-methoxy-2H-chromen-2-one]
< 1000 nM | COc1ccc2c(Nc3c(Cl)cncc3Cl)cc(=O)oc2c1OCCCBr [Example 30, 8-(3-Bromopropoxy)-4-(3,5-dichloropyridin-4-ylamino)-7-methoxy-2H-chromen-2-one]
< 1000 nM | COc1ccc2c(Nc3c(Cl)cncc3Cl)cc(=O)oc2c1OCCCCCN(C)C [Example 31, 4-(3,5-Dichloropyridin-4-ylamino)-8-(5-(dimethylamino)pentyloxy)-7-methoxy-2H-chromen-2-one]
< 1000 nM | COc1ccc2c(Nc3c(Cl)cncc3Cl)cc(=O)oc2c1OCCCN(C)C [Example 32, 4-(3,5-Dichloropyridin-4-ylamino)-8-(3-(dimethylamino)propoxy)-7-methoxy-2H-chromen-2-one]
< 1000 nM | COc1ccc2c(Nc3c(Cl)cncc3Cl)cc(=O)oc2c1OCc1ccccc1[N+](=O)[O-] [Example 33, 4-(3,5-Dichloropyridin-4-ylamino)-7-methoxy-8-(2-nitrobenzyloxy)-2H-chromen-2-one]
< 1000 nM | COc1ccc2c(Nc3c(Cl)cncc3Cl)cc(=O)oc2c1OCc1cccc([N+](=O)[O-])c1 [Example 34, 4-(3,5-Dichloropyridin-4-ylamino)-7-methoxy-8-(3-nitrobenzyloxy)-2H-chromen-2-one]
< 1000 nM | COc1ccc2c(Nc3c(Cl)cncc3Cl)cc(=O)oc2c1OCc1ccc([N+](=O)[O-])cc1 [Example 35, 4-(3,5-Dichloropyridin-4-ylamino)-7-methoxy-8-(4-nitrobenzyloxy)-2H-chromen-2-one]
< 1000 nM | CCOC(=O)CCCOc1c(OC)ccc2c(Nc3c(Cl)cncc3Cl)cc(=O)oc12 [Example 36, Ethyl 4-(4-(3,5-dichloropyridin-4-ylamino)-7-methoxy-2-oxo-2H-chromen-8-yloxy)butanoate]
< 1000 nM | CCOC(=O)CCCCOc1c(OC)ccc2c(Nc3c(Cl)cncc3Cl)cc(=O)oc12 [Example 37, Ethyl 5-(4-(3,5-dichloropyridin-4-ylamino)-7-methoxy-2-oxo-2H-chromen-8-yloxy)pentanoate]
< 1000 nM | CCOC(=O)CCCCCOc1c(OC)ccc2c(Nc3c(Cl)cncc3Cl)cc(=O)oc12 [Example 38, Ethyl 6-(4-(3,5-dichloropyridin-4-ylamino)-7-methoxy-2-oxo-2H-chromen-8-yloxy)hexanoate]
> 1000 nM | COc1ccc2c(N[C@H]3CC[C@@H](C(=O)O)CC3)cc(=O)oc2c1OC1CCCC1 [Example 39, cis-4-(8-(Cyclopentyloxy)-7-methoxy-2-oxo-2H-chromen-4-ylamino)cyclohexanecarboxylic acid]
< 1000 nM | COc1ccc2c(Nc3c(Cl)cncc3Cl)cc(=O)oc2c1OCC1CCCC1 [Example 40, 8-(Cyclopentylmethoxy)-4-(3,5-dichloropyridin-4-ylamino)-7-methoxy-2H-chromen-2-one]
< 1000 nM | COc1ccc2c(Nc3c(Cl)cncc3Cl)cc(=O)oc2c1OCCc1ccccc1 [Example 41, 4-(3,5-Dichloropyridin-4-ylamino)-7-methoxy-8-phenethoxy-2H-chromen-2-one]
< 1000 nM | COc1ccc2c(Nc3c(Cl)cncc3Cl)cc(=O)oc2c1OCCCC(=O)O [Example 42, 4-(4-(3,5-Dichloropyridin-4-ylamino)-7-methoxy-2-oxo-2H-chromen-8-yloxy)butanoic acid]
< 1000 nM | COc1ccc2c(Nc3c(Cl)cncc3Cl)cc(=O)oc2c1OCCCCC(=O)O [Example 43, 5-(4-(3,5-Dichloropyridin-4-ylamino)-7-methoxy-2-oxo-2H-chromen-8-yloxy)pentanoic acid]
< 1000 nM | COc1ccc2c(Nc3c(Cl)cncc3Cl)cc(=O)oc2c1OCCCCCC(=O)O [Example 44, 6-(4-(3,5-Dichloropyridin-4-ylamino)-7-methoxy-2-oxo-2H-chromen-8-yloxy)hexanoic acid]

SMILES | IC50
COc1ccc2c(Nc3c(Cl)cncc3Cl)cc(=O)oc2c1OCC(C)C [Example 23, 4-(3,5-Dichloropyridin-4-ylamino)-8-isobutoxy-7-methoxy-2H-chromen-2-one] | < 1000 nM
COc1ccc2c(Nc3c(Cl)cncc3Cl)cc(=O)oc2c1OCCCCBr [Example 25, 8-(4-Bromobutoxy)-4-(3,5-dichloropyridin-4-ylamino)-7-methoxy-2H-chromen-2-one] | < 1000 nM
COc1ccc2c(Nc3c(Cl)cncc3Cl)cc(=O)oc2c1OCCCCN(C)C [Example 27, 4-(3,5-Dichloropyridin-4-ylamino)-8-(4-(dimethylamino)butoxy)-7-methoxy-2H-chromen-2-one] | < 1000 nM
